These results are taken from patent US20050239873A1 (priority 1999, published 2005).

Where only a bound is given, the exact number is not on record here.

The test system of data set [1] is NCI-H929 myeloma cells. Briefly: [3H]-thymidine incorporation assay. In kind it is cell-based, human. The conditions noted are these: 72 h drug exposure. How it is done: (§1) RPMI 8226 cells were grown in 96 well plates for 24 h prior to addition of 2-methoxy Antimycins. Antimycin stocks in DMSO were serially diluted in RPMI media. Cells were incubated for 48 h with compounds at final compound concentrations ranging from 10^−4 to 10^−8 M. MTT assays were performed in quadruplicate and percent growth inhibitions were calculated as (A570 (control cells)—A570 (treated cells))/A570 (control cells). The GI50 was extrapolated from semi-log plots of the dose response for each compound. […] After 72 h drug exposures, 1 μCi/ml [^3H]-thymidine was added to wells. Cells were incubated for an additional 24 h, and then transferred to GF/C filter plates (Packard) using a plate washer. Filters were dried, added to scintillant, and counted in a TopCount scintillation counter (Packard). Drug response was expressed as the percentage of vehicle-treated controls, and each value shown as the average of three determinations.

In data set [2] the test system is RPMI-8226 myeloma cells. As to the kind of experiment: [3H]-thymidine incorporation assay. Type of data set: cell-based, human. The protocol:
as §1
A general note: Incorporation of labelled thymidine or its analogues reports DNA synthesis.

Data set [3] deals with U266 myeloma cells. Briefly: [3H]-thymidine incorporation assay. Type of data set: cell-based, human. Particulars: 72 h drug exposure. The protocol: as §1
The test system of data set [4] is RPMI-8226 myeloma cell line. As to the kind of experiment: O2 consumption with a Clark electrode. Type of data set: cell-based, human. The protocol:
Respiratory rates of both cell lines were maintained through repeated additions of 10 μM 2-OMeA, to a final concentration of 90 μM. […] Real-time glucose consumption and lactate production by TAMH cells grown on microcarrier beads was monitored using a novel microsequential injection-lab on valve (μSI-LOV) system (Schulz et al., Analyst 127:1293-1298, 2002). […] Since 2-OMeA has no effect on cellular respiration at these concentrations, 2-OMeA induced aerobic glycolysis in TAMH cells. The glycolytic response to 2-OMeA was proportional to cellular BCl-xL protein expression.

Data set [5] concerns RPMI-8226 human myeloma xenografts in NOD/SCID mice. Briefly: RPMI-8226 tumor xenografts. Type of data set: in vivo, mouse. The protocol: Six to nine-week old Nod/Les2 Scid/J mice were inoculated with 3×10^7 RPMI-8226 cells by interscapular subcutaneous injection. Mice were maintained under specific pathogen-free conditions. Palpable tumor nodules were measured in two dimensions with calipers and tumor volumes calculated in mm^3 as (length×width^2)/2. Blood samples were collected by retro-orbital bleed for human light chain measurements by ELISA with lambda-specific antibody and horseradish peroxidase detection (BD Biosciences). Animals were sacrificed by halothane inhalation, and histologic examination of tumors and internal organs was performed. All experiments were approved by the Fred Hutchison Cancer Research Center Institutional Animal Care and Use Committee.
2-OMe antimycin A1 was synthesized from antimycin A1 (Sigma) (comprising about 80% antimycin Ala and about 20% A1b) and dissolved in phosphate-buffered saline with 20% Cremaphor, 25% ethanol (3 mg/ml) for parenteral administration by tail vein injection in a total volume of 100 μl. Control mice received injections of Cremaphor/ethanol vehicle.
Tissues were fixed in 10% buffered formalin, embedded in paraffin, sectioned and stained with hematoxylin and eosin. TUNEL staining was performed using 0.3 units/ml terminal deoxynucleotidyl transferase and biotinylated dATP with development by avidin-biotin peroxidase method. BCl-xL immunohistochemistry was performed using anti-Bcl-xL antibody (BD Biosciences) followed by biotinylated secondary antibody and peroxidase-labeled ABC reagent (Vector, Burlingame Calif.).
To determine whether 2-OMeA, has anti-tumor activity in vivo, a total of 12 NOD/SCID mice in three experiments were inoculated with 3×10^7 RPMI-8226 human myeloma cells by interscapular subcutaneous injection. […] In total, six mice received three intravenous doses of 10 mg/kg 2-OMeA1 on alternate days starting on day 6. Six control mice received injections of Cremaphor/ethanol vehicle without drug.

The test system of data set [6] is NOD/SCID mice. As to the kind of experiment: In vivo toxicity, intravenous dosing.
The test system of data set [7] is plasma proteins. As to the kind of experiment: Binding to plasma proteins (ultrafiltration). In kind it is in vitro ADME, human. Particulars: presence of NaF+EDTA, 1000 ng/ml. The protocol:
Solutions of 2-OMe antimycin A3 were diluted with plasma (dog or human) containing NaF+EDTA to final concentrations of 1.0 or 0.2 μg/ml. Controls were diluted with water to the same final concentrations. These preparations were incubated at 37° C. for 20 min, at which time portions were taken and placed in the sample reservoirs of Amicon Centrifree® ultrafiltration systems (Millipore Co., Bedford, Mass.). At 37° C., the filter systems were centrifuged until the reservoirs were dry. From each filtrate, portions were taken for analysis by HPLC. The amounts present were designated as “free drug” (F). The concentrations of the unfiltered solutions were also determined by triplicate analyses. This amount represented the “total drug” concentration (T). The percentage of 2-OMe antimycin A3 bound to plasma proteins was calculated by the following formula: % bound=((T−F)/T)×100

For data set [8], the system named is RPMI-8226 cells. As to the kind of experiment: GI50 assay (MTT). In kind it is cell-based, human. The conditions noted are these: 48 h, MTT. The protocol:
as §1

In data set [9] the target is Bcl-xLΔC20 (Homo sapiens, UniProt Q07817). Briefly: Calcein leakage from large unilamellar vesicles (pore formation). Type of data set: biochemical.
Chain of Bcl-xLΔC20 (Q07817 1-213 limits assumed, stated change not applied): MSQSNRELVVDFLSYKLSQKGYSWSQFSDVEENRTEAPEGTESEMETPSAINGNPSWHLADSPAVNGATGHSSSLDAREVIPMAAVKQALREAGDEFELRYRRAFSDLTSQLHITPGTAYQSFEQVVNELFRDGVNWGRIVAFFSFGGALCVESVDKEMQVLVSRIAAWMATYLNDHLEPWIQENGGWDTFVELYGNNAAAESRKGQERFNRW
Method: In this example the ability of antimycin A to prevent pore formation by BCl-xL was tested. […] Recombinant human BCl-xL lacking the C-terminal 20-residue membrane anchor sequence, Bcl-xLΔC20, forms pores in large unilamellar vesicles. A reporter, calcein, can leak out of the vesicles through these pores.
Briefly, a dry film of lipid was resuspended in an aqueous solution containing 40 mM calcein (Molecular Probes, Eugene, Oreg.), 25 mM KCl and 10 mM HEPES (pH 7.0). After 5 freeze-thaw cycles, the lipidic solution was extruded through 2 Nucleopore filters, 0.1 μm pore diameter. […] The size of the vesicle suspension was measured by a Coulter N4 Plus-Sizer to confirm that the mean diameter of the vesicle sample was close to the expected size (100 nm). The osmolalities of all solutions were measured in a cryoscopic osmometer (Wescor Inc., Logan, Utah) and adjusted to 0.21 Osmol/kg by the addition of sodium chloride, as necessary.
Calcein leakage was determined by adding 2-4 μg of purified Bcl-xLΔC20 (5 μg/ml, 161 nM) to a solution of 100 mM NaCl, 10 mM HEPES (pH 5.0) containing the large unilamellar vesicles (50 μM final lipid concentration) described above. Changes in the fluorescence intensity were measured in an Aminco-SLM spectrofluorimeter. […] The 100% fluorescence level for leakage was obtained by detergent lysis (0.1% Triton X-100) of the vesicles containing entrapped calcein.

One may read the IC50 as the point on the concentration scale where inhibition reaches its midpoint. Read a high IC50 as weaker potency in that assay. For the compound 2-methoxy antimycin A [2-OMeA], the results for the IC50 in [1], in data set [2] (72 h drug exposure) and in data set [3] were 10 µg/mL, 15 µg/mL and 5 µg/mL, respectively. The “IC50 relative to antimycin A” value in data set [2] (RPMI-8226, U266 and NCI-H929) is 100 fold. Also, the respiratory rate entry in [4] (repeated additions of 10 μM to a final concentration of 90 μM) is given as “maintained”. Further, the “treated mice with regression of tumor nodules” value in data set [5] (second round, 10 mg/kg alternate days, days 26 through 31) is 6/6. Moreover, the mice died entry in [6] (intravenous 20 mg/kg) is listed as “Three of six”.
Usually GI50 stands for the concentration giving 50% growth inhibition. Read a low GI50 as greater sensitivity of the cells. Regarding `CCCCCC[C@H]1C(=O)O[C@H](C)[C@H](NC(=O)c2cccc(NC=O)c2OC)C(=O)O[C@@H](C)[C@@H]1OC(=O)CC(C)C` [2-OMeA1, 2-methoxy antimycin A1], the “Protein binding, Human” value in [7] worked out at 99.5%. In data set [8], this compound showed a 50% growth inhibitory concentration (GI50) of 8.56 µM. In addition, the “time to regression of early and large nodules” value in [5] (10 mg/kg intravenously) is given as “within the first week”. In data set [5] (24 and 48 h after a single 10 mg/kg intravenous treatment), the tumor sections entry is on record as “widespread apoptosis”. Besides, the “average reduction of serum levels of human light chain” value in data set [5] (after the third injection, 10 mg/kg intravenous on alternate days) is 87%. Besides, in [5] (three intravenous doses of 10 mg/kg on alternate days starting on day 6), the “mice with tumor regression during treatment” value was “Five of six”. In [5] (two tumor-bearing control mice, 10 mg/kg on days 43, 46 and 48), the “effect of delayed treatment on tumor nodules” value is reported as “regression of tumor nodules”. In addition, in data set [6] (10 mg/kg), the “histologic examinations of normal tissues” value was “No cellular injury or inflammation”. Besides, the “reformation of antimycin A1 in plasma” value in [6] (preliminary LC/MS analyses of plasma after administration) is reported as “have not demonstrated reformation”. In data set [6] (three intravenous doses of 10 mg/kg on alternate days), the “mice survived without apparent toxicity” value is reported as 6 of 6. In data set [6] (treated tumor-bearing mice, 10 mg/kg), the adverse effects result was “No adverse effects”.
On to `CCCC[C@H]1C(=O)OC(C)[C@H](NC(=O)c2cccc(NC=O)c2OC)C(=O)O[C@@H](C)C1OC(=O)CC(C)C` (some centres unmarked) [2-OMeA3, Antimycin A3 methyl ether], for which, in [9], the “inhibition of Bcl-xL pore formation, liposome permeability assay” value is reported as “almost as well as antimycin A3”. Further, the “Protein binding, Human” value in data set [7] is listed as 99.9%. In [8] (Homo sapiens, RPMI-8226), this compound registered a GI50 of 10.2 µM.
With antimycin A, the “Bcl-xL pore-forming activity (calcein leakage)” value in [9] (12 μM) is reported as “completely blocked”. The “50% growth inhibition (GI50)” value in data set [1] was 0.2 µg/mL; in data set [2] (72 h drug exposure) it was 0.1 µg/mL; in data set [3] it was 0.05 µg/mL. For the same compound, the dampening of respiration in data set [4] (10 μM) is on record as over 90%.
